Results from patent US20260209180A1, “PROTEASE INHIBITORS FOR TREATING OR PREVENTING CORONAVIRUS INFECTION” (Merck Sharp & Dohme LLC, priority 2023, published 2026).

The molecules below were run against SARS2 coronavirus 3CL protease (Severe acute respiratory syndrome coronavirus 2, UniProt P0DTD1) (assay: SARS2 Coronavirus 3CL Protease Assay (FRET)). Conditions: 5 nM protease pre-incubated with compound 30 minutes; 15 uM peptide substrate; 4 h room temperature; read-out: FRET Potency (nM); IC50 values in the SARS2 3CLPro FRET assay.
Type: biochemical
Protocol: The enzymatic activity of SARS2 coronavirus 3CL protease was determined in a FRET (fluorescence resonance energy transfer)-based assay measuring the cleavage of a peptide substrate by recombinantly expressed and purified enzyme. Cleavage of the peptide SEQ ID NO: 1 (CPC Scientific) by SARS2 3CL protease was measured in reaction buffer (50 mM Hepes pH 7.5, 0.01% Triton X-100, 0.01% BSA, 2 mM DTT). […] Room temperature reactions (4 h) were quenched by addition of a high dose of inhibitor and read on an appropriate plate reader (excitation wavelength=495 nm, emission wavelength=520 nm). Data were analyzed by a standard 4 parameter fit to determine IC50 values.
With `CC(F)(F)CC[C@H](NC(=O)c1cc(C(F)(F)F)cnc1NC(=O)c1cccc(C(F)(F)F)c1)C(=O)C(=O)NC1CC1` [Example 39, N-[(1S)-1-[2-(cyclopropylamino)-2-oxo-acetyl]-4,4-difluoro-pentyl]-5-(trifluoromethyl)-2-[[3-(trifluoromethyl)benzoyl]amino]pyridine-3-carboxamide] the IC50 was 40.9 nM.
In the case of `CNC(=O)C(=O)[C@H](CCC(C)(F)F)NC(=O)c1cc(Cl)ccc1NC(=O)C1CCOCC1` [Example 16, N-[4-chloro-2-[[(1S)-4,4-difluoro-1-[2-(methylamino)-2-oxo-acetyl]pentyl]carbamoyl]phenyl] tetrahydropyran-4-carboxamide], the IC50 is reported as 8.5 nM.
`CNC(=O)C(=O)[C@H](CCC(C)(F)F)NC(=O)c1cc(Cl)ccc1NC(=O)[C@H]1CC1(F)F` [Example 23, 5-chloro-2-[[(1R)-2,2-difluorocyclopropanecarbonyl]amino]-N-[(1S)-4,4-difluoro-1-[2-(methylamino)-2-oxo-acetyl]pentyl]benzamide] was tested, and the IC50 was 13.2 nM.
With `CNC(=O)C(=O)[C@H](CCC(C)(F)F)NC(=O)c1cc(Cl)cnc1NC(=O)C12CC(F)(C1)C2` [Example 38, 5-chloro-N-[(1S)-4,4-difluoro-1-[2-(methylamino)-2-oxo-acetyl]pentyl]-2-[(3-fluorobicyclo[1.1.1]pentane-1-carbonyl)amino]pyridine-3-carboxamide] the IC50 was 40.4 nM.
`CNC(=O)C(=O)[C@H](CCC(C)(F)F)NC(=O)c1cc(F)cnc1NC(=O)C1CC(F)(F)C1` [Example 28, 2-[(3,3-difluorocyclobutanecarbonyl)amino]-N-[(1S)-4,4-difluoro-1-[2-(methylamino)-2-oxo-acetyl]pentyl]-5-fluoro-pyridine-3-carboxamide] was tested, and the IC50 was 19.8 nM.
`CNC(=O)C(=O)[C@H](CCC(C)(F)F)NC(=O)c1cc(Cl)ccc1NC(=O)C1CC1C(F)(F)F` (stereo partly drawn) [Example 30, 5-chloro-N-[(1S)-4,4-difluoro-1-[2-(methylamino)-2-oxo-acctyl]pentyl]-2-[[2-(trifluoromethyl)cyclopropane-carbonyl]amino]benzamide] showed an IC50 of 20.7 nM.
For `CNC(=O)C(=O)[C@H](CCC(C)(F)F)NC(=O)c1cc(Cl)cnc1NC(=O)OC` [Example 56, methyl N-[5-chloro-3-[[(1S)-4,4-difluoro-1-[2-(methylamino)-2-oxo-acetyl]pentyl]carbamoyl]-2-pyridyl]carbamate], the IC50 was 4.2 nM.
`CNC(=O)C(=O)[C@H](CCC(C)(F)F)NC(=O)c1cc(F)cnc1NC(=O)c1cccc(F)c1` [Example 34, N-[(1S)-4,4-difluoro-1-[2-(methylamino)-2-oxo-acetyl]pentyl]-5-fluoro-2-[(3-fluorobenzoyl)amino]pyridine-3-carboxamide] gave an IC50 of 23.8 nM.
Molecule `CNC(=O)C(=O)[C@H](CCC(C)F)NC(=O)c1cc(Cl)ccc1NC(=O)OC` (single isomer, unassigned) [Example 6D] has an IC50 of 702 nM.
Molecule `CNC(=O)C(=O)[C@H](CCC(C)(F)F)NC(=O)c1cc(F)cnc1NC(=O)C12CC(F)(C1)C2` [Example 35, N-[(1S)-4,4-difluoro-1-[2-(methylamino)-2-oxo-acetyl]pentyl]-5-fluoro-2-[(3-fluorobicyclo[1.1.1]pentane-1-carbonyl)amino]pyridine-3-carboxamide] has an IC50 of 23.9 nM.
`CC(F)(F)CC[C@H](NC(=O)c1cc(F)cnc1NC(=O)c1cccc(F)c1)C(=O)C(=O)NC1CC1` [Example 40, N-[(1S)-1-[2-(cyclopropylamino)-2-oxo-acetyl]-4,4-difluoro-pentyl]-5-fluoro-2-[(3-fluorobenzoyl)amino]pyridine-3-carboxamide] showed an IC50 of 41.6 nM.
`COC(=O)N[C@H](C(=O)Nc1ccc(Cl)cc1C(=O)N[C@@H](CCC(C)(F)F)C(=O)C(=O)NC1CC1)C(C)(C)C` [Example 3, Methyl ((S)-1-((4-chloro-2-(((S)-1-(cyclopropylamino)-6,6-difluoro-1,2-dioxoheptan-3-yl)carbamoyl)phenyl)amino)-3,3-dimethyl-1-oxobutan-2-yl)carbamate] was tested, and the IC50 was 24 nM.
`CNC(=O)C(=O)[C@H](CCC(C)(F)F)NC(=O)c1cc(Cl)ccc1NC(=O)[C@H](C)OC` [Example 60, 5-chloro-N-[(1S)-4,4-difluoro-1-[2-(methylamino)-2-oxo-acetyl]pentyl]-2-[[(2S)-2-methoxypropanoyl]amino] benzamide] was tested, and the IC50 was 9.4 nM.
`CNC(=O)C(=O)[C@H](CCC(C)(F)F)NC(=O)c1cc(Cl)ccc1NC(=O)C1CC(F)(F)C1` [Example 13, 5-chloro-2-[(3,3-difluorocyclobutanecarbonyl)amino]-N-[(1S)-4,4-difluoro-1-[2-(methylamino)-2-oxo-acetyl]pentyl]benzamide] was tested, and the IC50 was 8 nM.
`CNC(=O)C(=O)[C@H](CCC(C)(F)F)NC(=O)c1cc(Cl)ccc1NC(=O)OC1CC1` [Example 59, cyclopropyl N-[4-chloro-2-[[(1S)-4,4-difluoro-1-[2-(mcthylamino)-2-oxo-acetyl]pentyl]carbamoyl]phenyl]carbamate] gave an IC50 of 13.1 nM.
`CNC(=O)C(=O)[C@H](CCC(C)(F)F)NC(=O)c1cc(Cl)ccc1NC(=O)C(C)c1cscn1` (stereo partly drawn) [Example 8, 5-chloro-N-[(1S)-4,4-difluoro-1-[2-(methylamino)-2-oxo-acetyl]pentyl]-2-(2-thiazol-4-ylpropanoylamino)benzamide] gave an IC50 of 6.6 nM.
`CC(F)(F)CC[C@H](NC(=O)c1cc(Cl)ccc1NC(=O)c1cccc(C(F)(F)F)c1)C(=O)C(=O)NC1CC1` [Example 12, 5-chloro-N-[(1S)-1-[2-(cyclopropylamino)-2-oxo-acetyl]-4.4-difluoro-pentyl]-2-[[3-(trifluoromethyl)benzoyl]amino]benzamide] gave an IC50 of 7.9 nM.
In the case of `CNC(=O)C(=O)[C@H](CCC(C)(F)F)NC(=O)c1cc(Cl)cnc1NC(=O)C1CC(F)(F)C1` [Example 54, 5-chloro-2-[(3,3-difluorocyclobutanecarbonyl)amino]-N-[(1S)-4,4-difluoro-1-[2-(methylamino)-2-oxo-acetyl]pentyl]pyridine-3-carboxamide], the IC50 is reported as 7.5 nM.
`CC(F)(F)CC[C@H](NC(=O)c1cc(F)cnc1NC(=O)C(C)(C)C)C(=O)C(=O)NC1CC1` [Example 46, N-[(1S)-1-[2-(cyclopropylamino)-2-oxo-acetyl]-4,4-difluoro-pentyl]-2-(2,2-dimethylpropanoylamino)-5-fluoro-pyridine-3-carboxamide] gave an IC50 of 94.8 nM.
`CNC(=O)C(=O)[C@H](CCC(C)(F)F)NC(=O)c1cc(F)cnc1NC(=O)C(C)(C)C` [Example 43, N-[(1S)-4,4-difluoro-1-[2-(methylamino)-2-oxo-acetyl]pentyl]-2-(2,2-dimethylpropanoylamino)-5-fluoro-pyridine-3-carboxamide] was tested, and the IC50 was 49.6 nM.
Molecule `CNC(=O)C(=O)[C@H](CCC(C)F)NC(=O)c1cc(Cl)ccc1NC(=O)OC` (single isomer, unassigned) [Example 6C] has an IC50 of 13.6 nM.
Work on `CNC(=O)C(=O)[C@H](CCC(C)(F)F)NC(=O)c1cc(C#N)ccc1NC(=O)c1cccc(F)c1` [Example 41, 5-cyano-N-[(1S)-4,4-difluoro-1-[2-(methylamino)-2-oxo-acetyl]pentyl]-2-[(3-fluorobenzoyl)amino]benzamide] yielded an IC50 of 45.3 nM.
In the case of `CNC(=O)C(=O)[C@H](CCC(C)F)NC(=O)c1cc(Cl)ccc1NC(=O)OC` (single isomer, unassigned) [Example 6A], the IC50 is reported as 25.8 nM.
With `CC(F)(F)CC[C@H](NC(=O)c1cc(Cl)ccc1NC(=O)CCC(F)(F)F)C(=O)C(N)=O` [Example 53, 5-chloro-N-[(1S)-4,4-difluoro-1-oxamoyl-pentyl]-2-(4,4,4-trifluorobutanoylamino) benzamide] the IC50 was 97.5 nM.
Work on `CNC(=O)C(=O)[C@H](CCC(C)(F)F)NC(=O)c1cc(Cl)ccc1NC(=O)c1ccnc(C(F)(F)F)c1` [Example 1, (S)—N-(4-chloro-2-((6,6-difluoro-1-(methylamino)-1,2-dioxoheptan-3-yl)carbamoyl)phenyl)-2-(trifluoromethyl)isonicotinamide] yielded an IC50 of 8.1 nM.
Work on `CC(F)(F)CC[C@H](NC(=O)c1cc(Cl)cnc1NC(=O)C12CC(C(F)(F)F)(C1)C2)C(=O)C(=O)NC1CC1` [Example 27, 5-chloro-N-[(1S)-1-[2-(cyclopropylamino)-2-oxo-acetyl]-4,4-difluoro-pentyl]-2-[[3-(trifluoromethyl)bicyclo[1.1.1]pentane-1-carbonyl]amino]pyridine-3-carboxamide] yielded an IC50 of 17.4 nM.
`CNC(=O)C(=O)[C@H](CCC(C)(F)F)NC(=O)c1cc(Cl)ccc1NC(=O)c1cccnc1` [Example 52] gave an IC50 of 15.6 nM.
Molecule `CC(F)(F)CC[C@H](NC(=O)c1cc(Cl)cnc1NC(=O)c1cccc(F)c1)C(=O)C(=O)NC1CC1` [Example 29, 5-chloro-N-[(1S)-1-[2-(cyclopropylamino)-2-oxo-acetyl]-4,4-difluoro-pentyl]-2-[(3-fluorobenzoyl)amino]pyridine-3-carboxamide] has an IC50 of 20.4 nM.
With `CNC(=O)C(=O)[C@H](CCC(C)(F)F)NC(=O)c1cc(Cl)ccc1NC(=O)C1CC1C(F)(F)F` (stereo partly drawn) [Example 48, 5-chloro-N-[(1S)-4,4-difluoro-1-[2-(methylamino)-2-oxo-acetyl]pentyl]-2-[[2-(trifluoromethyl)cyclopropane-carbonyl]amino]benzamide] the IC50 was 11.3 nM.
`CC(F)(F)CC[C@H](NC(=O)c1cc(Cl)cnc1NC(=O)c1cccc(C(F)(F)F)c1)C(=O)C(=O)NC1CC1` [Example 5, (S)-5-chloro-N-(1-(cyclopropylamino)-6,6-difluoro-1,2-dioxoheptan-3-yl)-2-(3-(trifluoromethyl)benzamido)nicotinamide] gave an IC50 of 9.2 nM.
